According to patent US20100168146A1, “Composition Comprising (R)-Spiro[L-Azabicyclo[2.2.2]Octane-3,2'(3'H)-Furo[2,3-B]Pyridine (AZD0328) and its Use in the Treatment of Alzheimer's Disease, ADHD or Cognitive Dysfunction” (priority 2008, published 2010):
Entries after “also recorded” stand apart in the source; their conditions may differ.

Legend:
rats = experiment: Nicotine drug discrimination; conditions: Wistar, rat, in vivo, sc
Experimental: AZD0328 was tested for its potential to produce nicotine-like stimulus effects after subcutaneous administration in a drug-discrimination procedure (Table 3).

rhesus monkeys = experiment: Spatial delayed response (SDR) task; type: in vivo, rhesus monkey (macaca mulatta)
Description: AZD0328 at low doses improved performance in the spatial delayed response test in monkeys. Rhesus monkeys were trained in a spatial delayed response task. In this task, food-motivated monkeys observed one of several spatially-displaced wells being baited with a food reward. After a brief delay during which a shutter is drawn and the wells are covered, the monkey must indicate the position of the baited well to receive the food reward. The performance of groups of monkeys was titrated into a narrow range by changing the number of wells or the duration of the delay. Monkeys were tested extensively to establish baseline performance before being administered drug or vehicle. Intramuscular administration of 0.00048 or 0.0016 mg/kg AZD0328 evoked a sustained increase in the percentage of correct responses monkeys made when compared with responses of vehicle-treated monkeys.
Rhesus monkey were trained in a spatial delayed response task. Middle doses of AZD0328 (0.0016 and 0.00048 mg/kg im) evoked a sustained improvement in rhesus monkey performance, while a higher dose (0.48 mg/kg) and a lower dose (0.000016 mg/kg) transiently impaired performance of the task (Table 2).

dogs [1] = experiment: Cardiovascular telemetry / ECG; type: in vivo; conditions: dog
Experimental: The cardiovascular effects of orally administered AZD0328 were assessed dogs implanted with telemetry transmitters (Table 3). The main purpose of the study was to evaluate effects on the QT interval of the ECG during a 7-days dosing period followed by 5 days of recovery, thus enabling assessment of any accumulation of effects and the recovery back to baseline. Systolic, diastolic and mean arterial blood pressure, heart rate, lead II ECG and core body temperature were recorded continuously. The PR, QRS and QT intervals of the ECG were measured, and the QT interval was corrected for changes in heart rate using the method of Van de Water (QTcV).

dogs [2] = experiment: Maximum tolerated dose and 7 days oral toxicity; type: in vivo; conditions: dog
Experimental: Single doses of 4.5 to 17 mg/kg were administrated to test AZD0328 to 2 male and 2 female dogs. […] Signs of nausea and at the higher doses vomiting was seen. In the 7 days repeated dose study 2 male and 2 female dogs were given 35 mg/kg per day. However, vomiting was the major clinical sign recorded during the study.

dog Purkinje fibre = experiment: Dog isolated cardiac Purkinje fibres, action potentials; conditions: stimulation 0.5 and 1 Hz
Experimental: Effects of AZD0328 on cardiac action potentials were assessed in 4 dog Purkinje fibre preparations. (Table 3). The following action potential parameters were measured at the stimulation frequencies 0.5 and 1 Hz: action potential duration at 50% (APD50), 70% (APD70) and 90% (APD90) of repolarisation; the maximum velocity of the action potential upstroke (Vmax); the action potential amplitude (APA) and the resting membrane potential (RMP). At both stimulation frequencies, AZD0328 caused a concentration-dependent prolongation of APD50, APD70 and APD90, with significant effects at 5.6 μM and above. There was also an indication of proarrhythmic potential of the compound. A 10% increase in APD90 in the isolated dog Purkinje fibre is seen at concentrations between 5.6 and 16.8 μm.

[3] = Single oral dose PK in healthy human volunteers (Table A); type: in vivo
Experimental: Total oral doses of AZD0328 in the range 0.025-0.68 mg produced mean plasma concentrations of 0.6-15 nM, consistent with the range of plasma concentrations found to be associated with improved performance in the spatial delayed response test in monkeys. Total oral doses of AZD0328 in the range 0.005-2 mg produced mean plasma concentrations of 0.17-43.9 nM, within the range of plasma concentrations found to be associated with improved performance in rodent models.

[4] = [14C]-AZD0328 QWBA / mass balance; type: in vivo, rat
Experimental: In the mass balance study conducted in fed rats, a Tmax of 0.5 h to 1 h was observed following single and multiple oral doses (solution). The bioavailability of AZD0328 (total radioactivity) in this study was >90%. […] Generally speaking, the elimination was complete within the 24-hour interval at the dose levels tested.
AZD0328 is a low protein binding molecule across species including human (<15%) across the concentration range 21.6 to 21,630 ng/mL (0.1 to 100 μM). In most species, the binding was concentration and gender independent. […] [^14C]-AZD0328-derived radioactivity was rapidly distributed to the organs and tissues with high levels of radioactivity associated with the contents of the GI tract and the major excretion organs, including kidney and liver. The radioactivity declined rapidly and by 168 h postdose radioactivity levels were not detectable in most tissues, with the exception of a few ocular tissues and nasal turbinates. […] Notable association of [^14C]-AZD0328-related radioactivity with the melanin-containing tissues was observed, with measurable radioactivity still present in the ocular tissue at 216 h postdate. [^14C]-AZD0328-derived radioactivity crossed the placenta.
Pharmacokinetics and mass balance of [^14C]-AZD0328 were investigated in rats. The excretion of [^14C]-AZD0328-derived radioactivity in rats was mainly through the kidney. Over the course of the study, radioactivity recovered in urine and feces accounted for approximately 85% and 8%, respectively.

[5] = single oral 0.025 mg, geometric mean
[6] = single oral 0.075 mg, geometric mean
[7] = single oral 0.23 mg, geometric mean
[8] = single oral 0.68 mg, geometric mean
[9] = single oral 1.35 mg, geometric mean
[10] = single oral 2 mg, geometric mean

c1cnc2c(c1)C[C@@]1(CN3CCC1CC3)O2 [AZD0328, (R)-Spiro[1-azabicyclo[2.2.2]octane-3,2′(3′H)-furo[2,3-b]pyridine]]
Dose up to which nicotine-like stimulus properties were lacking (rats): properties at doses up to 5.4 mg/kg | Duration of improved performance after a single dose (rhesus monkeys; four of nine monkeys improved at middle doses): more than one month | Lower doses with no effect or transient impairment (rhesus monkeys; rhesus monkeys): ≥ 0.00016 mg/kg | Percent correct responses (rhesus monkeys; rhesus monkeys, 0.016 mg/kg): non-significant increase | Body temperature, PR or QRS interval (dogs [1]; any dose level, 7 or 1 day dosing): no effect | BP and/or HR (dogs [1]; oral gavage): increased at all doses. | Emesis (dogs [1]; single doses 17.3 and 34.6 mg/kg (mid and high dose groups)): frequent vomiting; also recorded: severe emesis. BP and/or HR | Dose with slight QT prolongation (ECG) (dogs [2]): ≥ 8.6 mg/kg | Concentration with significant prolongation of APD50, APD70 and APD90 (dog Purkinje fibre): ≥ 5.6 µM | Cmax/Dose ([3]; single oral 0.005 mg, geometric mean (% CV)): 0.007 (24) | AUC/Dose [3, 5]: 0.053 | CL/F [3, 5]: 19.0 L/h | Cmax/Dose [3, 5]: 0.006 | AUC/Dose [3, 6]: 0.049 | Cmax/Dose [3, 6]: 0.006 | AUC/Dose [3, 7]: 0.061 | Cmax/Dose [3, 7]: 0.006 | t1/2 [3, 7]: 6.7 h | AUC/Dose [3, 8]: 0.046 | Cmax/Dose [3, 8]: 0.005 | t1/2 [3, 8]: 6.0 h | AUC/Dose [3, 9]: 0.054 | Cmax/Dose [3, 9]: 0.005 | AUC/Dose [3, 10]: 0.046 | CL/F [3, 10]: 22.0 L/h | Cmax/Dose [3, 10]: 0.005 | Absorbed (urinary radioactivity and AUC, oral versus iv) ([4]; female rat): 95% | Absorbed (urinary radioactivity and AUC, oral versus iv) ([4]; male rat): 97% | Radioactivity recovered in feces ([4]; rat): ~8% | Radioactivity recovered in urine ([4]; rat): approximately 85%
